Measured values reported in US12391919B2, “Culture medium, coating matrix and method for maturing midbrain dopaminergic progenitor cells” (NUWACELL BIOTECHNOLOGIES CO., LTD., priority 2022, dated 2025).
Where a name gives a salt, the structure may show the parent alone.

Legend:
Format in all cases: cell-based, human
imDAPs [1] = experiment: Flow cytometry (FACS) analysis of FOXA2 expression in expanded imDAPs; conditions: Example 6
Experimental: • 1. Individualize and collect cells by either Accutase or TrypLE treatment. • 2. Wash cells with 1 ml PBS and pellet cells at 250×g for 15 sec. • 3. Remove supernatant, add ˜200 μl of 4% PFA, mix and fix for 10 min at RT. • 4. Pellet cells at 350×g for 5 min. • 5. Wash cells by 1 ml of FACS buffer and pellet cells at 350×g for 5 min. • 6. Remove supernatant, add 200 μl/tube of FACS buffer/0.1% TritonX, mix for 10 min at RT. • 7. Wash cells by 1 ml of FACS buffer and pellet cells at 350×g for 5 min. • 8. Remove supernatant, add 200 μl/tube of primary antibody diluted in FACS buffer, mix gently, and incubate for 30 min at RT. • 9. Wash cells by 1 ml of FACS buffer and pellet cells at 350×g for 5 min. • 10. Remove supernatant, and add 200 μl of secondary antibody diluted in FACS buffer, mix gently, and incubate for 30 min at RT. • 11. Wash cells by 1 ml of FACS buffer and pellet cells at 300×g for 5 min. • 12. Remove supernatant, add 200 μl of FACS buffer, and run samples on the flow cytometry. (2) qRT-PCR • 1. For qRT-PCR analysis of mRNA gene expression, RNA should be harvested from at least 2×10^6 cells. • 2. Harvest cells, add 350 μl of buffer RLT+1% (vol/vol) s-mercaptoethanol to the well, transfer the lysate to a 1.5 ml tube, and put it immediately on ice. • 3. Perform RNA extraction using the Tiangen Kit (DP430), and follow the manufacturer's protocol ‘Purification of total RNA from animal and human cells’. • 4. When the RNA extraction was completed, determine the RNA concentration using a Nanodrop instrument. • 5. Perform the first-strand cDNA synthesis reaction with 1 μg of RNA using the HiScript TM II Q RT SuperMIX for qPCR(+gDNA wiper) Kit (Vazyme, #R223-01) for RT-qPCR. Follow the manufacturer's ‘First-Strand cDNA Synthesis’ protocol. This reaction would yield a 20 μl product. • 6. Dilute the 10 μl cDNA product in 80 μl of nuclease-free water. • 7. Pipette the diluted cDNA product (1 μl), Sybr green master mix (5 μl, Transgen, #AQ131) and 0.95 μM reverse/forward primer mix (4 μl) into a 384-well PCR plate in triplicate, either manually or using an automated pipetting robot. The complete primer panel included the target genes and the housekeeping gene (RPL13A). In the analysis, also included a sample of undifferentiated hPSCs to determine the gene expression levels relative to the expression in hPSCs. • 8. Analyze the samples by running a quantitative PCR on the LightCycler 480 instrument using a 40× cycle two-step protocol with a 60° C., 60 sec annealing/elongation step and a 95° C., 30 sec denaturation step. The average CT values from the three technical replicates were used for calculations of relative gene expression using the ΔΔCT method. For each gene, calculate the FC of the differentiated samples relative to the undifferentiated control sample using the housekeeping gene for normalization. Next, calculate the average of the FC values on the basis of the housekeeping gene. (3) Immunocytochemical Analysis • 1. Cell fixation: Remove the medium from the cells and wash with PBS. Add 4% (wt/vol) PFA (e.g., 200 μl to a well in a 48-well plate) and incubate at room temperature (RT) for 15 min. after incubation, wash the cells three times in PBS. • 2. Blocking: Remove PBS from the wells and add blocking solution to the cells, add enough volume to cover the cells. Leave the cells in blocking solution for 1 h at RT. • 3. Primary antibodies incubation: Remove the blocking solution from the cells and add the primary antibody solutions (˜100 μl/cm^2). […]

imDAPs [2] = experiment: imDAP maturation: cell morphology, adhesion and cell yield; conditions: Example 13; maturation media supplemented with 10 μM Y27632; day 7; FIG. 8A
Experimental: imDAPs were produced according to the method described in CN201910169525.0, and expanded as described in Example 10. […] MM-H used in Example 11 contained the following components: Neurobasal™ medium, 1% (v/v) Glutamax, 0.5 mM Db-cAMP sodium salt, 200 μM ascorbic acid, 20 ng/ml BDNF, 20 ng/ml GDNF, 1 ng/ml TGF-β3, 10 μM DAPT, HhPLT (0.5%, 1%, 2%). MM-B used in Example 11 contained the following components: Neurobasal, 1% (v/v) Glutamax, 0.5 mM Db-cAMP sodium salt, 200 μM ascorbic acid, 20 ng/ml BDNF, 20 ng/ml GDNF, 1 ng/ml TGF-β3, 10 μM DAPT, 2% (v/v) B27 (50×) (as control). The above HhPLT was produced from hPLT as follows. The hPLT was centrifuged at 3000 g for 30 min at 4° C. to obtain the supernatant, which was heated to 56° C. for 30 min. The suspension was finally cooled down to 4° C. at least 5 min, and spun at 3000 g for 30 min at 4° C. to obtain the HhPLT supernatant. Aliquots were prepared and stored at −80° C. until use. The above Medium was changed every 3rd day. On day 7, the imDAPs at early maturation stage were dissociated enzymatically with 1× TrypLE, centrifuged at 250 g for 5 minutes.
imDAPs were produced according to the method described in CN201910169525.0, and expanded as described in Example 10. […] Medium was changed every 3rd day. On day 7, the imDAPs at early maturation stage were dissociated enzymatically with 1× TrypLE, centrifuged at 250 g for 5 minutes. Cells were collected for RT-qPCR analysis of EN1, LMX1A, FOXA2, NURR1, SOX6 and TH gene expression. The maturation medium used in Example 12 contained the following components: Neurobasal™ medium, 1% (v/v) Glutamax, 1% (v/v) HhPLT, 0.5 mM Db-cAMP sodium salt, 200 μM ascorbic acid, 20 ng/mL BDNF, 20 ng/mL GDNF, 1 ng/mL TGF-β3, 10 μM DAPT.
imDAPs were produced according to the method described in CN201910169525.0, and expanded as described in Example 10. […] Cells were collected and counted by Vi-cell cytometer. The cells were analyzed by RT-qPCR for EN1, LMX1A, FOXA2, NURR1, SOX6 and TH gene expression. […]

imDAPs [3] = experiment: qRT-PCR analysis of imDAP-specific markers in expanded imDAPs; conditions: Example 3; 3 μM CHIR99021 (vs 0, 1.25 μM) during expansion; 5 days; FIG. 1C
Experimental: • 1. Individualize and collect cells by either Accutase or TrypLE treatment. • 2. Wash cells with 1 ml PBS and pellet cells at 250×g for 15 sec. • 3. Remove supernatant, add ˜200 μl of 4% PFA, mix and fix for 10 min at RT. • 4. Pellet cells at 350×g for 5 min. • 5. Wash cells by 1 ml of FACS buffer and pellet cells at 350×g for 5 min. • 6. Remove supernatant, add 200 μl/tube of FACS buffer/0.1% TritonX, mix for 10 min at RT. • 7. Wash cells by 1 ml of FACS buffer and pellet cells at 350×g for 5 min. • 8. Remove supernatant, add 200 μl/tube of primary antibody diluted in FACS buffer, mix gently, and incubate for 30 min at RT. • 9. Wash cells by 1 ml of FACS buffer and pellet cells at 350×g for 5 min. • 10. Remove supernatant, and add 200 μl of secondary antibody diluted in FACS buffer, mix gently, and incubate for 30 min at RT. • 11. Wash cells by 1 ml of FACS buffer and pellet cells at 300×g for 5 min. • 12. Remove supernatant, add 200 μl of FACS buffer, and run samples on the flow cytometry. (2) qRT-PCR • 1. For qRT-PCR analysis of mRNA gene expression, RNA should be harvested from at least 2×10^6 cells. • 2. […] Analyze the samples by running a quantitative PCR on the LightCycler 480 instrument using a 40× cycle two-step protocol with a 60° C., 60 sec annealing/elongation step and a 95° C., 30 sec denaturation step. […]

SMILES	percentage of Foxa2-expressing cells (imDAPs [1]; 10 μM Y27632 vs 5 μM Blebbistatin, VTN-coated, Day 6, FIG. 2)	percentage of Foxa2-expressing cells during passages (imDAPs [1]; medium with Y27632)	cell adhesion and growth (imDAPs [2])	mDAP marker expression (EN1, LMX1A, FOXA2) (imDAPs [3])
C[C@@H](N)[C@H]1CC[C@H](C(=O)Nc2ccncc2)CC1 [Y27632, (R)-(+)-trans-4-(1-aminoethyl)-N-(4-pyridyl) cyclohexanecarboxamide dihydrochloride]	capable of improving the percentage of Foxa2-expressing cells than Blebbistatin	still decreased during passages	could promote cell adhesion at a certain degree	–
Cc1cnc(-c2cnc(NCCNc3ccc(C#N)cn3)nc2-c2ccc(Cl)cc2Cl)[nH]1 [CHIR99021]	–	–	–	allowed better maintenance of mDAP marker expression
